≈ marks a conversion by molar mass, not a printed value. Like-named read-outs stand apart in the source and are kept apart here. Bounds are passed on as bounds.

Here are results for 21 compounds from patent publication US20210070747A1, “2(1H)-QUINOLINONE DERIVATIVE” (priority 2017, published 2021).

The test system of experiment [1] is E. Coli ATCC 25922. Briefly: Test for evaluating antibacterial activity (E. coli), broth microdilution MIC. It counts as cell-based. Particulars: Escherichia coli, ATCC25922; 35° C., 18 hours, cation-adjusted Mueller-Hinton medium. Put shortly: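 Broth microdilution per modified CLSI method in cation-adjusted Mueller-Hinton medium. Inoculum from overnight heart infusion agar growth, McFarland 0.5 suspension diluted 10-fold; incubation 35° C for 18 hours. MIC taken as lowest drug concentration with no visible growth.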
Background: Broth dilution looks for growth in wells or tubes with falling amounts of substance.

Experiment [2] has as its target T1, E. coli DNA gyrase (Escherichia coli, UniProt P0AES6).
T1 construct: made in house; host or cells: E. coli BL21 (DE3)
In words: Test for evaluating the activity of inhibiting E. coli DNA gyrase enzyme (Method 2, supercoiling, recombinant gyrA/gyrB complex). It counts as biochemical. The method in brief:
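Recombinant E. coli gyrA/gyrB complex (His-tagged, BL21(DE3)-expressed, Ni-NTA purified; 0.135 nmol/mL final) supercoiled relaxed pBR322 (1 ng/μL) with 0.5 mmol/L ATP in pH 8.0 Tris buffer, 60 min at room temperature. H19 stopped the reaction; supercoiled/relaxed ratio read at 485/535 nm, inhibition curves built from varying compound concentrations.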

For experiment [3], the system named is N. gonorrhoeae ATCC 49226. In words: Test for evaluating antibacterial activity (N. gonorrhoeae), broth microdilution MIC. The format is cell-based. Particulars: Neisseria gonorrhoeae, ATCC49226; 35° C., 24 hours, gonococcal broth. On the procedure:
Minimum inhibitory concentration (MIC) was measured using the broth microdilution method described below in accordance with a modification of the method of Geers et al. (Antimicrob. Agents. Chemother. (1989), 33, 233-234).
After sterilization, BD. Difco supplement C was added to give a final concentration of 1%, whereby a gonococcal broth was prepared.
Bacterial cells under test were cultured overnight on a chocolate II agar medium, scraped off and suspended at a concentration equivalent to McFarland 0.5 turbidity; the suspension thus obtained was diluted 5 folds to give a liquid inoculum. The inoculum (0.005 mL) was inoculated on a gonococcal broth containing the analyte compound and cultured at 35° C. for 24 hours. A minimum drug concentration at which no bacterial growth was macroscopically visible was designated MIC.

Where [4] appears, read: Method 2, read-out: E. Coli Gyrase supercoiling IC50.

As usually defined, the MIC is the lowest concentration that inhibits growth of the organism. As usually defined, the IC50 is the point on the concentration scale where inhibition reaches its midpoint. Turning to `CNc1cc(F)cc2c(NCC3CNC3)c(C(=O)Nc3ccc(C(=O)O)cc3)c(=O)[nH]c12.O=CO` [Example 135, 4-{[4-{[(azetidine-3-yl)methyl]amino}-6-fluoro-8-(methylamino)-2-oxo-1,2-dihydroquinoline-3-carbonyl]amino}benzoic acid-formate], the MIC was more than 16 µg/mL in experiment [1] and 0.12 µg/mL in experiment [3]. In addition, the IC50 in experiment [2] turned out to be 0.66 nM.
With `CNc1cc(F)cc2c(O)c(C(=O)Nc3cncnc3)c(=O)[nH]c12` [Example 138, 6-fluoro-4-hydroxy-8-(methylamino)-2-oxo-N-(pyrimidine-5-yl)-1,2-dihydroquinoline-3-carboxamide], the MIC was found to be 32 µg/mL (≈ 97.2 µM) in experiment [1] and 0.06 µg/mL (≈ 0.182 µM) in experiment [3]. Also, the IC50 in experiment [2] (setting [4]) came out at 129 nM.
Turning to `CNc1cc(F)cc2cc(C(=O)Nc3ccc(-c4noc(=O)[nH]4)cc3)c(=O)[nH]c12` [Example 144, 6-fluoro-8-(methylamino)-2-oxo-N-[4-(5-oxo-4,5-dihydro-1,2,4-oxadiazole-3-yl)phenyl]-1,2-dihydroquinoline-3-carboxamide], the minimal inhibitory concentration (MIC) was more than 8 µg/mL in experiment [1] and 0.004 µg/mL (≈ 0.0101 µM) in experiment [3]. Also, the IC50 in experiment [2] (setting [4]) came to 0.48 nM.
The matching figures for `CNc1cc(F)cc2cc(C(=O)Nc3ccc(C(=O)NS(C)(=O)=O)cc3)c(=O)[nH]c12` [Example 145, 6-fluoro-N-{4-[(methanesulfonyl)carbamoyl]phenyl}-8-(methylamino)-2-oxo-1,2-dihydroquinoline-3-carboxamide]: more than 32 µg/mL, 0.06 µg/mL (≈ 0.139 µM) and 0.19 nM.
The matching figures for `CNc1cc(F)cc2c(O)c(C(=O)Nc3ccc(C(=O)NS(C)(=O)=O)cc3)c(=O)[nH]c12` [Example 147, 6-Fluoro-4-hydroxy-N-[4-[(methanesulfonyl)carbamoyl]phenyl]-8-(methylamino)-2-oxo-1,2-dihydroquinoline-3-carboxamide]: more than 32 µg/mL, 0.008 µg/mL (≈ 0.0178 µM) and 1.75 nM.
The matching figures for `CNc1cc(F)cc2cc(C(=O)Nc3ccc(-c4nnn[nH]4)cc3)c(=O)[nH]c12` [Example 149, 6-fluoro-8-(methylamino)-2-oxo-N-[4-(1H-tetrazole-5-yl)phenyl]-1,2-dihydroquinoline-3-carboxamide]: more than 8 µg/mL, 0.03 µg/mL (≈ 0.0791 µM) and 0.55 nM.
As for `CNc1cc(F)cc2c(O)c(C(=O)Nc3ccc(C(=N)N)cc3)c(=O)[nH]c12` [Example 150, N-(4-Carbamimidoylphenyl)-6-fluoro-4-hydroxy-8-(methylamino)-2-oxo-1,2-dihydroquinoline-3-carboxamide], the results for the MIC in experiment [1] and in experiment [3] were more than 16 µg/mL and 0.03 µg/mL (≈ 0.0812 µM), respectively. Further, the IC50 in experiment [2] (setting [4]) worked out at 89.3 nM.
Regarding `CNc1cc(F)cc2cc(C(=O)Nc3ccc(S(C)(=N)=O)cc3)c(=O)[nH]c12` (stereo not drawn) [Example 151, 6-Fluoro-N-[4-(S-methanesulfonimidoyl)phenyl]-8-(methylamino)-2-oxo-1,2-dihydroquinoline-3-carboxamide], the MIC in experiment [1] was more than 16 µg/mL; in experiment [3], 0.5 µg/mL (≈ 1.29 µM). Also, the IC50 in experiment [2] came to 21.4 nM.
Take `CNc1cc(F)cc2c(O)c(C(=O)Nc3ccc(C(=O)OC)cc3CN3CCCCC3)c(=O)[nH]c12` [Example 152, Methyl 4-[[6-fluoro-4-hydroxy-8-(methylamino)-2-oxo-1,2-dihydroquinoline-3-carbonyl]amino]-3-[(piperidin-1-yl)methyl]benzoate]: the MIC in experiment [1] was more than 16 µg/mL; in experiment [3], 4 µg/mL (≈ 8.29 µM). Also, the IC50 in experiment [2] (setting [4]) stood at 1230 nM.
The matching figures for `CNc1cc(F)cc2cc(C(=O)Nc3ccc(NC(=O)NS(C)(=O)=O)cc3)c(=O)[nH]c12` [Example 154, 6-fluoro-N-(4-{[(methanesulfonyl)carbamoyl]amino}phenyl)-8-(methylamino)-2-oxo-1,2-dihydroquinoline-3-carboxamide]: more than 16 µg/mL, 0.06 µg/mL (≈ 0.134 µM) and 9.78 nM.
The matching figures for `CNc1cc(F)cc2c(O)c(C(=O)Nc3ccc(C(=O)O)cc3CN3CCOCC3)c(=O)[nH]c12` [Example 155, 4-[[6-Fluoro-4-hydroxy-8-(methylamino)-2-oxo-1,2-dihydroquinoline-3-carbonyl]amino]-3-[(morpholin-4-yl)methyl]benzoic Acid]: more than 32 µg/mL, 0.015 µg/mL (≈ 0.0319 µM) and 109 nM.
In the case of `CNc1cc(F)cc2c(O)c(C(=O)Nc3ccc(C(=O)O)cc3CN3CCC3)c(=O)[nH]c12.O=CO` [Example 156, 3-[(azetidine-1-yl)methyl]-4-{[6-fluoro-4-hydroxy-8-(methylamino)-2-oxo-1,2-dihydroquinoline-3-carbonyl]amino}benzoic acid-formate], the MIC in experiment [1] is 32 µg/mL; in experiment [3] it was 0.5 µg/mL. Also, in experiment [2], the IC50 amounted to 13.4 nM.
On to `CNc1cc(F)cc2c(O)c(C(=O)Nc3ccc(C(=O)O)cc3CN3CCCC3)c(=O)[nH]c12.O=CO` [Example 157, 4-{[6-fluoro-4-hydroxy-8-(methylamino)-2-oxo-1,2-dihydroquinoline-3-carbonyl]amino}-3-[(pyrrolidine-1-yl)methyl]benzoic acid-formate], for which the MIC in experiment [1] was 16 µg/mL; in experiment [3], 0.12 µg/mL. In experiment [2], the IC50 was determined as 5.61 nM.
For `CNc1cc(F)cc2cc(C(=O)Nc3ccc(C(O)C(N)=O)cc3)c(=O)[nH]c12` (stereo not drawn) [Example 158, N-[4-(2-amino-1-hydroxy-2-oxoethyl)phenyl]-6-fluoro-8-(methylamino)-2-oxo-1,2-dihydroquinoline-3-carboxamide], the MIC in experiment [1] was more than 16 µg/mL; in experiment [3], 0.03 µg/mL (≈ 0.0781 µM). For the same compound, in experiment [2] (setting [4]), the IC50 turned out to be 7.78 nM.
The matching figures for `CNc1cc(F)cc2cc(C(=O)Nc3ccc(C4OC(=O)NC4=O)cc3)c(=O)[nH]c12` (stereo not drawn) [Example 159, N-[4-(2,4-Dioxo-1,3-oxazolidin-5-yl)phenyl]-6-fluoro-8-(methylamino)-2-oxo-1,2-dihydroquinoline-3-carboxamide]: more than 16 µg/mL, 0.002 µg/mL (≈ 0.00487 µM) and 1.08 nM.
The matching figures for `O=C(O)c1ccc(NC(=O)c2cc3cccc(O)c3[nH]c2=O)cc1` [Example 160, 4-[(8-Hydroxy-2-oxo-1,2-dihydroquinoline-3-carbonyl)amino]benzoic Acid]: more than 32 µg/mL, more than 4 µg/mL and 11700 nM.
The matching figures for `CCc1cccc2cc(C(=O)Nc3ccc(C(=O)O)cc3)c(=O)[nH]c12` [Example 161, 4-[(8-ethyl-2-oxo-1,2-dihydroquinoline-3-carbonyl)amino]benzoic acid]: more than 32 µg/mL, more than 4 µg/mL and 2230 nM.
In the case of `CNc1cc(F)cc2cc(C(=O)Oc3ccc(C(=O)O)cc3)c(=O)[nH]c12` [Example 162, 4-{[6-fluoro-8-(methylamino)-2-oxo-1,2-dihydroquinoline-3-carbonyl]oxy}benzoic acid], the MIC in experiment [1] is more than 32 µg/mL; in experiment [3] it was more than 1 µg/mL. In addition, the IC50 in experiment [2] (setting [4]) stood at 3450 nM.
`CNc1cc(F)cc2cc(CNc3ccc(C(=O)O)cc3)c(=O)[nH]c12` [Example 163, 4-([[6-Fluoro-8-(methylamino)-2-oxo-1,2-dihydroquinoline-3-yl]methyl]amino)benzoic Acid]: the MIC in experiment [1] was more than 32 µg/mL; in experiment [3], more than 1 µg/mL. Besides, in experiment [2] (setting [4]), the IC50 was 2100 nM.
The matching figures for `CNc1cc(F)cc2c(O)c(C(=O)Nc3ccc(C(=O)NS(=O)(=O)N(C)C)cc3CN3CCCCC3)c(=O)[nH]c12` [Example 164, N-{4-[(dimethyl-sulfamoyl)carbamoyl]-2-[(piperidine-1-yl)methyl]phenyl}-6-fluoro-4-hydroxy-8-(methylamino)-2-oxo-1,2-dihydroquinoline-3-carboxamide]: 64 µg/mL (≈ 111 µM), 0.12 µg/mL (≈ 0.209 µM) and 4.44 nM.
The matching figures for `O=C(O)c1ccc(NC(=O)c2cc3ccccc3[nH]c2=O)cc1` [Reference Example 1, 4-[(2-Oxo-1,2-dihydroquinoline-3-carbonyl)amino]benzoic Acid, reference compound]: more than 64 µg/mL, more than 1 µg/mL and 7010 nM.
